“Also recorded” adds a separate entry of the source. Where two headings read alike, the source gives them in different places.
Assays:
[1] = target: T1, human TGR5 (Homo sapiens, UniProt Q8TDU6); experiment: cAMP-response element luciferase reporter in HEK293 cells transfected with human TGR5; type: cell-based
T1 construct: expressed in transfected cells; host or cells: HEK293
T1 sequence (Q8TDU6 1-330): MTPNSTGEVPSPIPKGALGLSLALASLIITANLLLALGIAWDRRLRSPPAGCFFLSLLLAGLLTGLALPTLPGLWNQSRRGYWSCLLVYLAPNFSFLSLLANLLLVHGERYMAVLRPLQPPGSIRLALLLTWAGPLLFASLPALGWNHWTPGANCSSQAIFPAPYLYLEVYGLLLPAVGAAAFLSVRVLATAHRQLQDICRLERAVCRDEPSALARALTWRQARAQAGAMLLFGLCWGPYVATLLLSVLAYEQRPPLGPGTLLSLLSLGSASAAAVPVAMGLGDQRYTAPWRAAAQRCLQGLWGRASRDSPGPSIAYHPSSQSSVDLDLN
Method: HEK293 cells were transfected with expression vectors for cAMP-response element luciferase, β-galactosidase and human TGR5. 24 hours after transfection, cells were treated with fexaramine or INT-777 (a TGR5 agonist).

[2] = test system: diet-induced obesity (DIO) mice; experiment: Chronic oral treatment of diet-induced obesity (DIO) mice; type: in vivo; settings: for glucose tolerance and insulin sensitivity (GTT, ITT): DIO mice, PO 5 weeks
Method: FIGS. 2A-2G are graphs illustrating the reduction of diet-induced obesity and improvement in metabolic homeostasis with fexaramine Mice were fed a high fat diet (HFD) for 14 weeks and then administered daily oral injections of vehicle (open boxes) or fexaramine (100 mg/kg) (solid boxes) for 5 weeks with HFD. Data represent the mean±STD. Statistical analysis was performed with the Student's t test (*p<0.05, **p<0.01).
FIG. 4A is a line graph showing the effects of fexaramine at various dosage levels on the body weight of mice fed a HFD for 14 weeks and then administered daily oral injections of vehicle or fexaramine (10, 50 or 100 mg/kg) for 5 weeks with HFD. Data represent the mean±STD. Statistical analysis was performed with the Student's t test (*p<0.05, **p<0.01).
(§1) Mice were fed HFD for 14 weeks and then administered vehicle or fexaramine (100 mg/kg) daily by oral administration for 5 weeks with HFD. Data represent the mean±STD. Statistical analysis was performed with the Student's t test (*p<0.05, **p<0.01).
The physiological effects of fexaramine in established obesity (diet-induced obesity, DIO) models were evaluated. C57BL/6J mice were fed a diet of 60% fat for 14 weeks and then treated PO with vehicle or fexaramine (100 mg/kg) for 5 weeks.

[3] = test system: gene and protein expression in BAT, ileum, liver and adipose tissues; experiment: Tissue gene and protein expression in treated DIO mice; type: in vivo
Method: as §1
FIGS. 7A-7H show a comparative expression chart and bar charts illustrating that fexaramine increased endogenous FGF15 signaling and changes in BA composition. Mice were fed HFD for 14 weeks and then administered daily oral injections of vehicle or fexaramine (100 mg/kg) for 5 weeks with HFD. In the bar graphs, open bars represent vehicle treatment and solid bars represent fexaramine treatment, and data represent the mean±STD. Statistical analysis was performed with the Student's t test (*p<0.05, **p<0.01).
Mice were fed on HFD for 14 weeks and subsequently subjected to daily PO injection of vehicle or fexaramine (100 mg/kg) for 5 weeks with HFD. In the bar graphs, open bars are vehicle, solid bars of fexaramine, and data represent the mean±STD. Statistical analysis was performed with the Student's t test (*p<0.05, **p<0.01).
Mice were fed HFD for 14 weeks and then subjected to daily PO injection of vehicle (open bar in bar graphs) or fexaramine (100 mg/kg) (solid bar in bar graphs) for 5 weeks with HFD.

COC(=O)/C=C/c1cccc(N(Cc2ccc(-c3ccc(N(C)C)cc3)cc2)C(=O)C2CCCCC2)c1 [fexaramine]
activation of TGR5 [1]: fails to activate TGR5 | activation of TGR5 ([1]; listed as Fex): does not activate | ambulatory counts ([2]; 100 mg/kg PO 5 weeks): more active than control mice | intestinal toxicity (histology of ileum and colon) ([2]; 100 mg/kg PO 5 weeks): no signs of intestinal toxicity | overall fat mass (MRI) ([2]; 100 mg/kg PO 5 weeks): reduced overall fat mass | respiratory exchange ratio ([2]; 100 mg/kg PO 5 weeks): No changes | serum lactate levels ([2]; 100 mg/kg PO 5 weeks): significantly decreased | serum levels of inflammatory cytokines TNFα, IL-1α, IL-1β, IL-17 and MCP-1 ([2]; 100 mg/kg PO 5 weeks): markedly decreased | wet weights of subcutaneous (inguinal) and visceral (gonadal and mesenteric) adipose depots ([2]; 100 mg/kg PO 5 weeks): significant reductions | serum lactate levels ([2]; 100 mg/kg PO 5 weeks, listed as Fex): significantly reduced | prevention of weight gain, dose dependence ([2]; 10, 50 or 100 mg/kg PO 5 weeks): dose-dependent manner | glucose tolerance and insulin sensitivity (GTT, ITT) [2]: improved glucose clearance; also recorded: improved insulin sensitivity | glucose tolerance and insulin sensitivity (GTT, ITT) ([2]; listed as Fex): dose-dependent improvements | weight gain ([2]; HFD 14 weeks, then 100 mg/kg PO 5 weeks): prevented weight gain | cross-sectional area of adipocytes in visceral depots (gonadal, mesenteric) ([2]; chronic treatment): markedly reduced | weight gain at the highest dose ([2]; highest dose): almost completely abrogated | accumulation of lipid vesicles in brown adipose tissue (BAT) ([2]; histology): markedly reduced | hepatic triglycerides ([2]; liver): marked decrease | lipid droplets in liver tissue (histology) ([2]; liver): reduction in lipid droplets | serum alanine aminotransferase (ALT) levels ([2]; serum): decreased | glucose, insulin, leptin, cholesterol and resistin levels ([2]; serum, 100 mg/kg PO 5 weeks): reduced glucose, insulin, leptin, cholesterol, and resistin levels | food intake ([2]; versus vehicle-treated control mice): not attributable to difference in food intake | carbon dioxide production (VCO2) ([2]; weight-matched DIO mice): exhaled more carbon dioxide | oxygen consumption (VO2) ([2]; weight-matched DIO mice): consistently higher oxygen consumption | D102, downstream target of TGR5, in brown adipose tissue ([3]; BAT): induce | PKA activity ([3]; BAT): increased PKA activity | expression of ERRy, PGC-1α, PGC-1β and target genes in BAT ([3]; BAT): induction | phosphorylation level of p38 ([3]; BAT): increased the phosphorylation level of p38 | FGF15 expression in intestine ([3]; RNA-Seq, ileal FXR target genes): dramatically up-regulated | OXPHOS activity, transcriptional changes in inguinal, gonadal and brown adipose depots ([3]; RNA-sequencing): selectively enhance OXPHOS activity only in BAT | HSL phosphorylation and serum levels of free fatty acids ([3]; adipose depots, serum): pronounced increase | serum catecholamine levels and β3-adrenergic receptor expression ([3]; chronic treatment): increased serum catecholamine levels and β3-adrenergic receptor expression | S6K phosphorylation (mTORC1 pathway) ([3]; gonadal WAT): reduced S6K phosphorylation | levels of IKK-ε and TANK-binding kinase 1 (TBK1) ([3]; gonadal adipose tissue): reduced levels | expression of brown fat-like signature genes ([3]; inguinal adipose tissue): increased the expression | respiratory capacity in the stromal vascular fraction ([3]; inguinal adipose tissue): increased respiratory capacity | abundance of multi-locular, UCP1-expressing adipocytes ([3]; inguinal adipose tissue, immunohistochemistry): substantial increase | expression of mucosal defense genes Occludin and Muc2 ([3]; intestine): increased expression | expression of CYP8B1 and CYP27A1 ([3]; liver): not affected | expression of liver FXR target genes SHP and BSEP ([3]; liver): not altered | hepatic CYP7A1 expression, mRNA and protein level ([3]; liver): significantly repressed | hepatic expression of gluconeogenic and lipogenic genes ([3]; liver): reduced hepatic expression | circulating FGF15 ([3]; serum): increase in circulating FGF15

— patent US10077268B2, “FXR agonists and methods for making and using” (Salk Institute for Biological Studies, priority 2014, dated 2018)
